From patent US20110263817A1, “METAL-BINDING COMPOUNDS AND USES THEREFOR” (priority 1999, published 2011) come the findings set out here.

Series [1] is described as follows: Inhibition of hydroxyl radical production, Cu(II)/ascorbic acid deoxyribose/TBA assay, Example 10. Type of series: biochemical. The note with it: for % Inhibition (decrease in absorbance compared to buffer alone): CuCl2 10 μM; for formation of the pink chromogen: data not shown. Here is the method: The ability of the compounds listed above to inhibit the generation of hydroxyl radicals was tested as described in Gutteridge and Wilkins, Biochim. Biophys. Acta, 759:38-41 (1983). Briefly, Cu(II) and ascorbic acid were mixed causing the generation of hydroxyl radicals. Then, deoxyribose was added, and the hydroxyl radicals, if present, attacked the deoxyribose to produce fragments. […]. Thus, absorbance at 532 nm is a measure of the damage to deoxyribose and, therefore, of hydroxyl radical formation.
To perform the assay, CuCl2 in buffer (20 mM KH2PO4 buffer, pH 7.4) and either one of the test compounds in buffer or buffer alone were added to test tubes (final concentration of CuCl2 was 10 μM). The test tubes were incubated for 15 minutes at room temperature. Then, 0.5 mM ascorbic acid in buffer and 1.9 mM 2-deoxy-D-ribose in buffer were added to each test tube, and the test tubes were incubated for 1 hour at 37° C. Finally, 1 ml of 1% (w/v) TBA in 50 mM NaOH and 1 ml of concentrated acetic acid were added to each test tube, and the test tubes were incubated in boiling water for 15 minutes. After the test tubes had cooled for 15 minutes, the absorbance at 532 nm was read.
Histidine and several peptides with histidine in different positions were tested at 1:1 and 2:1 peptide:copper ratios for their ability to inhibit the production of hydroxyl radicals. Also, a peptide having an acetylated aspartic acid (Ac-Asp) as the N-terminal amino acid was also tested. In Table 11, the % inhibition is the percent decrease in absorbance compared to buffer alone divided by the absorbance of the buffer alone.

The nature of series [2]: Inhibition of hydroxyl radical production by peptides, Cu(II)/ascorbic acid deoxyribose/TBA assay, Example 16. It is filed as biochemical. Here is the method: The ability of the peptides listed in Table 14 to inhibit the generation of hydroxyl radicals was tested. Hydroxyl radicals were generated by mixing Cu(II) and ascorbic acid. When deoxyribose was added, the hydroxyl radicals, if present, attacked the deoxyribose to produce fragments. Heating the fragments at low pH produced malonaldehyde that, upon the addition of 2-thiobarbituric acid (TBA), yielded a pink chromogen which was measured spectrophotometrically at 532 nm. Thus, absorbance at 532 nm is a measure of the damage to deoxyribose and, therefore, of hydroxyl radical formation.
To perform the assay, (a) 50 μl of 200 μM CuCl2 in water, (b) water or enough of one of the test peptides in water (total volume of 150 μl) to give peptide:copper ratios of 1:4, 1:2, 1:1, 2:1, 4:1, 6:1 and 8:1, and (c) 525 μl buffer (20 mM KH2PO4 buffer, pH 7.4) were added to test tubes. The test tubes were incubated for 15 minutes at room temperature. Then, 25 μl of 20 mM ascorbic acid in buffer and 250 μl of 7.5 mM 2-deoxy-D-ribose in water were added to each test tube, and the test tubes were incubated for 1 hour at 37° C. Finally, 1 ml of 1% (w/v) TBA in 50 mM NaOH and 1 ml of glacial acetic acid were added to each test tube, and the test tubes were incubated in boiling water for 15 minutes. After the test tubes had cooled for 15 minutes, the absorbance at 532 nm was read. The results are presented in attached FIGS. 26A-V.

Series [3] deals with human umbilical vein endothelial cells (HUVEC). The series is described as follows: Copper-induced IL-8 secretion from HUVEC (ELISA). Type of series: cell-based. The note with it: 25 μM CuCl2, 24 hours; P<0.007. Here is the method: Human umbilical vein endothelial cells (HUVEC) (5.0×10^4 cells) were incubated in serum-free and ascorbate-free endothelial cell basal medium-2 (EGM2) medium (BioWhittaker) with ITS supplement with (i) copper, (ii) a tetrapeptide analogue of the high-affinity, N-terminal Cu(II) binding site of human albumin (D-Asp D-Ala D-His D-Lys or d-DAHK), or (iii) both of them (n=3, in duplicate). IL-8 was determined by ELISA (see Example 13). […] Upon visual examination, all cells appeared to be viable at 24 hours.
(In general: In an ELISA, binding on a coated surface is turned into a signal by an enzyme label.)

Series [4] is described as follows: Cu(II)/H2O2 hydroxyl radical generation, 2-deoxy-D-ribose degradation (TBA, 532 nm), Example 7. Type of series: biochemical. The note with it: CuCl2 0.1 mM, H2O2 2.0 mM. On the procedure:
The ability of the L-tetrapeptide to inhibit the generation of ROS was tested as described in Gutteridge and Wilkins, Biochim. Biophys. Acta, 759, 38-41 (1983) and Cheeseman et al., Biochem. J., 252, 649-653 (1988). Briefly, Cu(II) and H2O2 were mixed causing the generation of hydroxyl radicals in a Fenton-type reaction. The hydroxyl radicals attack the sugar 2-deoxy-D-ribose (the sugar residue of DNA) to produce fragments. Heating the fragments at low pH produces malonaldehyde that, upon the addition of 2-thiobarbituric acid, yields a pink chromogen which can be measured spectrophotometrically at 532 nm. Thus, the absorbance at 532 nm is a measure of the damage to 2-deoxy-D-ribose.
The assay was performed with and without the L-tetrapeptide. […] Clearly, the L-tetrapeptide inhibited the degradation of 2-deoxy-D-ribose by hydroxyl radicals.

A short description of series [5]: Passage through a model of the blood brain barrier. It is filed as in vitro ADME.
[6] abbreviates: compound:copper 1:1, copper only control 0.954.
Setting [7] is: compound:copper 2:1, copper only control 0.954.
Where [8] appears, read: peptide:copper ratios of 2:1 or less.
[9] abbreviates: compound:copper 1:1, copper only control 0.767.
Where [10] appears, read: compound:copper 2:1, copper only control 0.767.

Residues, ends and D or L forms follow the SMILES beside them. No end group written: not given here.

Consider “L-Ala L-His L-Lys L-Ser L-Glu L-Val L-Ala L-His L-Arg L-Phe L-Lys (AHKSEVAHRFK; listed as Homo sapiens)”, for which the “% Inhibition (decrease in absorbance compared to buffer alone)” value came to 11.6% in series [1] (compound:copper 1:1) and 95.1% in series [1] (compound:copper 2:1). Also, the “Absorbance at 532 nm” value in series [1] (setting [6]) was 0.843; in series [1] (setting [7]), 0.047.
Ser Gly His: in series [2] (setting [8]), the “inhibition of hydroxyl radical production” value was “effectively inhibited hydroxyl radical production”.
For the molecule “L-Asp L-Ala L-His L-Lys L-Ser L-Glu L-Val L-Ala L-His L-Arg L-Phe L-Lys (DAHKSEVAHRFK; listed as Homo sapiens)”, the “% Inhibition (decrease in absorbance compared to buffer alone)” value was 13.2% in series [1] (compound:copper 1:1) and 95.8% in series [1] (compound:copper 2:1). For the same molecule, the figures for the “Absorbance at 532 nm” value in series [1] (setting [9]) and in series [1] (setting [10]) were 0.645 and 0.040, respectively.
As to Ala Ala His His (AAHH), the “inhibition of hydroxyl radical production” value in series [2] (1:4 peptide:copper ratio) is reported as “complete inhibition”; in series [2] (setting [8]) it was “effectively inhibited hydroxyl radical production”.
Consider “Acetylated-L-Asp L-Ala L-His L-Lys L-Ser L-Glu L-Val L-Ala L-His L-Arg L-Phe L-Lys (Ac-DAHKSEVAHRFK; listed as Homo sapiens)”, for which the “% Inhibition (decrease in absorbance compared to buffer alone)” value in series [1] (compound:copper 1:1) is reported as 16.9%; in series [1] (compound:copper 2:1), 27.5%. For the same molecule, the figures for the “Absorbance at 532 nm” value in series [1] (setting [9]) and in series [1] (setting [10]) were 0.633 and 0.692, respectively.
Regarding “L-His L-Lys L-Ser L-Glu L-Val L-Ala L-His L-Arg L-Phe L-Lys (HKSEVAHRFK; listed as Homo sapiens) [His Lys Ser Glu Val Ala His Arg Phe Lys]”, the “% Inhibition (decrease in absorbance compared to buffer alone)” value in series [1] (compound:copper 1:1) was 24.9%; in series [1] (compound:copper 2:1), 46.6%. In addition, the “Absorbance at 532 nm” value in series [1] (setting [6]) is 0.716; in series [1] (setting [7]), 0.509.
As to “DAHGMTCANC (cysteine pairing not given here)”, the “inhibition of hydroxyl radical production” value in series [2] (1:1 peptide:copper ratio) was “complete inhibition”; in series [2] (setting [8]), “effectively inhibited hydroxyl radical production”.
Turning to Asp Ala His Lys-NH2 (DAHK-NH2), the “inhibition of hydroxyl radical production” value in series [2] (setting [8]) is “effectively inhibited hydroxyl radical production”.
In the case of `[Cl][Cu][Cl]` [CuCl2], in series [3], the “IL-8 secretion as compared to controls incubated with water” value is on record as above 5.5 fold higher.
In the case of Thr Leu His, the “inhibition of hydroxyl radical production” value in series [2] (setting [8]) is “effectively inhibited hydroxyl radical production”.
Consider “DAHGMTCARC (cysteine pairing not given here)”, for which, in series [2] (setting [8]), the “inhibition of hydroxyl radical production” value is recorded as “effectively inhibited hydroxyl radical production”.
As to Catalase, the figures for the “formation of the pink chromogen” value in series [1] (catalase 0-80 nM) and in series [1] (catalase with L-Asp L-Ala L-His L-Lys present at tetrapeptide/copper 1:1) were “prevent the formation of the pink chromogen” and “prevents the formation of the pink chromogen”, respectively.
In the case of `C[C@H](NC(=O)[C@@H](N)CC(=O)O)C(=O)N[C@@H](Cc1c[nH]cn1)C(=O)N[C@@H](CCCCN)C(=O)O` [L-Asp L-Ala L-His L-Lys] (H-DAHK-OH), the “Percent Inhibition (degradation of 2-deoxy-D-ribose)” value in series [4] (tetrapeptide 0.12 mM (Cu(II):tetrapeptide 1:1.2)) is 38%; in series [4] (tetrapeptide 0.2 mM (Cu(II):tetrapeptide 1:2)) it was 73%. Besides, the “passage through a model of the blood brain barrier” value in series [5] is listed as “pass through a model of the blood brain barrier”.
